Data taken from ChEMBL document CHEMBL1201861, “Genomics of Drug Sensitity in Cancer screening data, Wellcome Trust Sanger Institute”.

Tests used:
Assay in all cases: cells
COLO-800 = type: functional, cell-based, Homo sapiens; conditions: Homo sapiens, COLO-800;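 also: growth inhibition of COLO-800 cells, read out with a cell viability assay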
Description: SANGER: Inhibition of human COLO-800 cell growth in a cell viability assay.

AM-38 = type: functional, cell-based, Homo sapiens; conditions: Homo sapiens, AM-38;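 also: growth inhibition of AM-38 cells of human origin, read out by a cell viability assay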
Description: SANGER: Inhibition of human AM-38 cell growth in a cell viability assay.

HEL = type: functional, cell-based, Homo sapiens; conditions: Homo sapiens, HEL;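 also: growth inhibition of HEL cells, read out with a cell viability assay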
Description: SANGER: Inhibition of human HEL cell growth in a cell viability assay.

RCC10RGB = type: functional, cell-based, Homo sapiens; conditions: Homo sapiens, RCC10RGB;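 also: growth inhibition of human RCC10RGB cells, read out by a cell viability assay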
Description: SANGER: Inhibition of human RCC10RGB cell growth in a cell viability assay.

GI-1 = type: functional, cell-based, Homo sapiens; conditions: Homo sapiens, GI-1;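 also: growth inhibition of human GI-1 cells, measured with a cell viability readout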
Description: SANGER: Inhibition of human GI-1 cell growth in a cell viability assay.

KLE = type: functional, cell-based, Homo sapiens; conditions: Homo sapiens, KLE;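 also: growth inhibition of human KLE cells, read out with a cell viability assay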
Description: SANGER: Inhibition of human KLE cell growth in a cell viability assay.

SK-MEL-1 = type: functional, cell-based, Homo sapiens; conditions: Homo sapiens, SK-MEL-1;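 also: growth inhibition of human SK-MEL-1 cells, read out by a cell viability assay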
Description: SANGER: Inhibition of human SK-MEL-1 cell growth in a cell viability assay.

D-502MG = type: functional, cell-based, Homo sapiens; conditions: Homo sapiens, D-502MG
Description: SANGER: Inhibition of human D-502MG cell growth in a cell viability assay.

NEC8 = type: functional, cell-based, Homo sapiens; conditions: Homo sapiens, NEC8;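 also: growth inhibition of human NEC8 cells, read out by a cell viability assay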
Description: SANGER: Inhibition of human NEC8 cell growth in a cell viability assay.

EW-1 = type: functional, cell-based, Homo sapiens; conditions: Homo sapiens, EW-1;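 also: growth inhibition of the human EW-1 cell line, read out by a cell viability assay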
Description: SANGER: Inhibition of human EW-1 cell growth in a cell viability assay.

NB13 = type: functional, cell-based, Homo sapiens; conditions: Homo sapiens, NB13;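 also: cell viability readout measuring growth inhibition of human NB13 cells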
Description: SANGER: Inhibition of human NB13 cell growth in a cell viability assay.

NCI-H446 = type: functional, cell-based, Homo sapiens; conditions: Homo sapiens, NCI-H446;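 also: growth inhibition of NCI-H446 cells determined by a cell viability assay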
Description: SANGER: Inhibition of human NCI-H446 cell growth in a cell viability assay.

NB69 = type: functional, cell-based, Homo sapiens; conditions: Homo sapiens, NB69;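 also: growth inhibition of NB69 cells, determined by a cell viability assay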
Description: SANGER: Inhibition of human NB69 cell growth in a cell viability assay.

Becker = type: functional, cell-based, Homo sapiens; conditions: Homo sapiens, Becker;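 also: growth inhibition of Becker cells, read out with a cell viability assay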
Description: SANGER: Inhibition of human Becker cell growth in a cell viability assay.

HCE-T = type: functional, cell-based, Homo sapiens; conditions: Homo sapiens, HCE-T;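 also: cell viability assay read-out, reporting inhibition of HCE-T cell growth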
Description: SANGER: Inhibition of human HCE-T cell growth in a cell viability assay.

SF-126 = type: functional, cell-based, Homo sapiens; conditions: Homo sapiens, SF-126;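 also: growth inhibition of human SF126 cells, read out with a cell viability assay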
Description: SANGER: Inhibition of human SF126 cell growth in a cell viability assay.

HCE-4 = type: functional, cell-based, Homo sapiens; conditions: Homo sapiens, HCE-4;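 also: cell viability assay measuring inhibition of growth in the human HCE-4 cell line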
Description: SANGER: Inhibition of human HCE-4 cell growth in a cell viability assay.

LU-139 = type: functional, cell-based, Homo sapiens; conditions: Homo sapiens, LU-139
Description: SANGER: Inhibition of human LU-139 cell growth in a cell viability assay.

NB10 = type: functional, cell-based, Homo sapiens; conditions: Homo sapiens, NB10;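 also: growth inhibition of NB10 cells, read out by a cell viability assay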
Description: SANGER: Inhibition of human NB10 cell growth in a cell viability assay.

NCI-H226 = type: functional, cell-based, Homo sapiens; conditions: Homo sapiens, NCI-H226;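 also: cell viability read-out used to gauge growth inhibition of the cells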
Description: SANGER: Inhibition of human NCI-H226 cell growth in a cell viability assay.

MZ1-PC = type: functional, cell-based, Homo sapiens; conditions: Homo sapiens, MZ1-PC;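 also: cell viability assay measuring growth inhibition of human MZ1-PC cells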
Description: SANGER: Inhibition of human MZ1-PC cell growth in a cell viability assay.

NCI-N87 = type: functional, cell-based, Homo sapiens; conditions: Homo sapiens, NCI-N87;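 also: growth inhibition of human NCI-N87 cells, read out with a cell viability assay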
Description: SANGER: Inhibition of human NCI-N87 cell growth in a cell viability assay.

NCI-H1650 = type: functional, cell-based, Homo sapiens; conditions: Homo sapiens, NCI-H1650;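 also: growth inhibition of human NCI-H1650 cells measured by a cell viability assay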
Description: SANGER: Inhibition of human NCI-H1650 cell growth in a cell viability assay.

HCC2157 = type: functional, cell-based, Homo sapiens; conditions: Homo sapiens, HCC2157;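 also: growth inhibition of the cancer cell line, read out as cell viability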
Description: SANGER: Inhibition of human HCC2157 cell growth in a cell viability assay.

ML-2 = type: functional, cell-based, Homo sapiens; conditions: Homo sapiens, ML-2;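 also: growth inhibition of ML-2 cells, measured with a cell viability readout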
Description: SANGER: Inhibition of human ML-2 cell growth in a cell viability assay.

A4-Fuk = type: functional, cell-based, Homo sapiens; conditions: Homo sapiens, A4-Fuk;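 also: growth inhibition of A4-Fuk cells, read out by a cell viability assay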
Description: SANGER: Inhibition of human A4-Fuk cell growth in a cell viability assay.

ES6 = type: functional, cell-based, Homo sapiens; conditions: Homo sapiens, ES6;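 also: growth inhibition of human ES6 cells, read out with a cell viability assay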
Description: SANGER: Inhibition of human ES6 cell growth in a cell viability assay.

TE-12 = type: functional, cell-based, Homo sapiens; conditions: Homo sapiens, TE-12;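 also: growth inhibition of TE-12 cells, read out by a cell viability assay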
Description: SANGER: Inhibition of human TE-12 cell growth in a cell viability assay.

SHP77 = type: functional, cell-based, Homo sapiens, SHP-77; conditions: Homo sapiens, SHP77;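 also: growth inhibition of human SHP-77 cells measured by a cell viability assay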
Description: SANGER: Inhibition of human SHP-77 cell growth in a cell viability assay.

GCIY = type: functional, cell-based, Homo sapiens; conditions: Homo sapiens, GCIY;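 also: growth inhibition of the human GCIY cell line, read out by a cell viability assay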
Description: SANGER: Inhibition of human GCIY cell growth in a cell viability assay.

NCI-H2126 = type: functional, cell-based, Homo sapiens; conditions: Homo sapiens, NCI-H2126;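 also: growth inhibition of the cancer cell line, determined with a cell viability readout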
Description: SANGER: Inhibition of human NCI-H2126 cell growth in a cell viability assay.

Lu-65 = type: functional, cell-based, Homo sapiens; conditions: Homo sapiens, Lu-65;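 also: growth inhibition of Lu-65 cancer cells, read out by a cell viability assay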
Description: SANGER: Inhibition of human LU-65 cell growth in a cell viability assay.

SCH = type: functional, cell-based, Homo sapiens; conditions: Homo sapiens, SCH;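 also: growth inhibition of human SCH cells, read out in a cell viability assay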
Description: SANGER: Inhibition of human SCH cell growth in a cell viability assay.

ATN-1 = type: functional, cell-based, Homo sapiens; conditions: Homo sapiens, ATN-1;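 also: growth inhibition of human ATN-1 cells, read out with a cell viability assay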
Description: SANGER: Inhibition of human ATN-1 cell growth in a cell viability assay.

NCI-H1299 = type: functional, cell-based, Homo sapiens; conditions: Homo sapiens, NCI-H1299;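 also: growth inhibition of human NCI-H1299 cells, read out by a cell viability assay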
Description: SANGER: Inhibition of human NCI-H1299 cell growth in a cell viability assay.

ETK-1 = type: functional, cell-based, Homo sapiens; conditions: Homo sapiens, ETK-1;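 also: growth inhibition of human ETK-1 cells, read out with a cell viability assay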
Description: SANGER: Inhibition of human ETK-1 cell growth in a cell viability assay.

ES8 = type: functional, cell-based, Homo sapiens; conditions: Homo sapiens, ES8;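 also: growth inhibition of human ES8 cells, read out with a cell viability assay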
Description: SANGER: Inhibition of human ES8 cell growth in a cell viability assay.

BV-173 = type: functional, cell-based, Homo sapiens; conditions: Homo sapiens, BV-173
Description: SANGER: Inhibition of human BV-173 cell growth in a cell viability assay.

NCI-H1770 = type: functional, cell-based, Homo sapiens; conditions: Homo sapiens, NCI-H1770;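 also: growth inhibition of NCI-H1770 cells determined with a viability readout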
Description: SANGER: Inhibition of human NCI-H1770 cell growth in a cell viability assay.

LB1047-RCC = type: functional, cell-based, Homo sapiens; conditions: Homo sapiens, LB1047-RCC;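 also: inhibition of cell growth, determined with a cell viability assay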
Description: SANGER: Inhibition of human LB1047-RCC cell growth in a cell viability assay.

EW-3 = type: functional, cell-based, Homo sapiens; conditions: Homo sapiens, EW-3;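 also: cell viability assay read-out, IC50 reflects inhibition of growth of the EW-3 cells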
Description: SANGER: Inhibition of human EW-3 cell growth in a cell viability assay.

Calu-6 = type: functional, cell-based, Homo sapiens; conditions: Homo sapiens, Calu-6;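 also: growth of human Calu-6 cells, read out by a cell viability assay, IC50 marking inhibition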
Description: SANGER: Inhibition of human Calu-6 cell growth in a cell viability assay.

GT3TKB = type: functional, cell-based, Homo sapiens; conditions: Homo sapiens, GT3TKB;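 also: growth inhibition of the cell line, read out with a cell viability assay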
Description: SANGER: Inhibition of human GT3TKB cell growth in a cell viability assay.

GOTO = type: functional, cell-based, Homo sapiens; conditions: Homo sapiens, GOTO;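 also: growth inhibition of GOTO cells, read out by a cell viability assay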
Description: SANGER: Inhibition of human GOTO cell growth in a cell viability assay.

NCI-H209 = type: functional, cell-based, Homo sapiens; conditions: Homo sapiens, NCI-H209;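 also: growth inhibition of human NCI-H209 cells, measured by a cell viability assay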
Description: SANGER: Inhibition of human NCI-H209 cell growth in a cell viability assay.

BE-13 = type: functional, cell-based, Homo sapiens; conditions: Homo sapiens, BE-13;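 also: growth inhibition of human BE-13 cells, measured with a cell viability assay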
Description: SANGER: Inhibition of human BE-13 cell growth in a cell viability assay.

L-428 = type: functional, cell-based, Homo sapiens; conditions: Homo sapiens, L-428
Description: SANGER: Inhibition of human L-428 cell growth in a cell viability assay.

SK-LMS-1 = type: functional, cell-based, Homo sapiens; conditions: Homo sapiens, SK-LMS-1;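 also: growth inhibition of human SK-LMS-1 cells, read out with a cell viability assay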
Description: SANGER: Inhibition of human SK-LMS-1 cell growth in a cell viability assay.

CTV-1 = type: functional, cell-based, Homo sapiens; conditions: Homo sapiens, CTV-1;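 also: growth inhibition of the cell line, read out with a cell viability assay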
Description: SANGER: Inhibition of human CTV-1 cell growth in a cell viability assay.

KP-N-YS = type: functional, cell-based, Homo sapiens; conditions: Homo sapiens, KP-N-YS;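 also: cell viability assay measuring inhibition of cell line growth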
Description: SANGER: Inhibition of human KP-N-YS cell growth in a cell viability assay.

Measured: IC50

Nc1ccn([C@@H]2O[C@H](CO)[C@@H](O)C2(F)F)c(=O)n1 [GEMCITABINE]
42.7 nM: GT3TKB
269 nM: NCI-H446
25.4 nM: NCI-H1650
8.08 nM: ETK-1
40.6 nM: COLO-800
333 nM: NCI-N87
25.7 nM: ML-2
> 1020 nM: SK-MEL-1 | D-502MG | HCC2157 | TE-12 | SHP77 | NCI-H2126 | SCH | GOTO
634 nM: RCC10RGB
35.4 nM: NEC8
14.1 nM: CTV-1
304 nM: Lu-65
2.22 nM: EW-1
24.4 nM: NB10
7.05 nM: SF-126
23.6 nM: L-428
38.2 nM: NB13
1.79 nM: HEL
317 nM: NCI-H226
2.76 nM: GI-1
1.05 nM: NB69
55 nM: NCI-H1770
14.6 nM: LU-139
17.3 nM: BV-173
580 nM: EW-3
254 nM: MZ1-PC
459 nM: KLE
52.1 nM: NCI-H209
267 nM: Becker
1.73 nM: Calu-6
92.7 nM: GCIY
12.4 nM: HCE-T
5.21 nM: BE-13
not listed: KP-N-YS
< 4 nM: all other assays above

C=C(c1ccc(C(=O)O)cc1)c1cc2c(cc1C)C(C)(C)CCC2(C)C [BEXAROTENE]
3340 nM: ATN-1
7620 nM: SK-LMS-1
not listed: KP-N-YS
> 8000 nM: all other assays above

CC1(C)CNc2cc(NC(=O)c3cccnc3NCc3ccncc3)ccc21 [MOTESANIB]
not listed: SK-LMS-1
> 2000 nM: all other assays above
